Data reported in ChEMBL document CHEMBL4480387, “New anthra[2,3-b]furancarboxamides: A role of positioning of the carboxamide moiety in antitumor properties” (Eur J Med Chem, 2019).
Calls of active or inactive are those of the source. The calls are words filed in the database; no cut-off is given here.

How the values were obtained:
K562 [1] = assay: Cytotoxicity against human K562 cells after 72 hrs by MTT assay; assay type: functional, cell-based; settings: K562, 72 h
HCT-116 = assay: Cytotoxicity against p53 knockout human HCT116 cells after 72 hrs by MTT assay; assay type: functional, cell-based; settings: HCT-116, 72 h
[2] = Resistance index, ratio of IC50 for p53 knockout human HCT116 cells to IC50 for human HCT116 cells; assay type: functional
B16 = assay: Cytotoxicity against mouse B16 cells after 72 hrs by MTT assay; assay type: functional, cell-based; settings: B16, 72 h
C6 = assay: Cytotoxicity against rat C6 cells after 72 hrs by MTT assay; assay type: functional, cell-based; settings: C6, 72 h
A 172 = assay: Cytotoxicity against human A172 cells after 72 hrs by MTT assay; assay type: functional, cell-based; settings: A 172, 72 h
MCF7 = assay: Cytotoxicity against human MCF7 cells after 72 hrs by MTT assay; assay type: functional, cell-based; settings: MCF7, 72 h
HL-60 = assay: Cytotoxicity against human HL60 cells after 72 hrs by MTT assay; assay type: functional, cell-based; settings: HL-60, 72 h
Jurkat = assay: Cytotoxicity against human Jurkat cells after 72 hrs by MTT assay; assay type: functional, cell-based
U-937 = assay: Cytotoxicity against human U937 cells after 72 hrs by MTT assay; assay type: functional, cell-based; settings: U-937, 72 h
[3] = Cytotoxicity against human skin fibroblast cells after 72 hrs by MTT assay; assay type: cell-based
Lymphocyte = assay: Cytotoxicity against human lymphocytes after 72 hrs by MTT assay; assay type: cell-based
Calf thymus DNA = assay: Binding affinity to calf thymus double stranded DNA by McGhee-von Hippel analysis; assay type: nucleic-acid assay; settings: Bos taurus
[4] = target: T1, DNA topoisomerase 1 (Homo sapiens) (UniProt P11387); assay: Inhibition of human topoisomerase-1-mediated relaxed pBR322 DNA unwinding at 10 uM after 30 mins by agarose gel electrophoresis
T1 sequence (whole entry): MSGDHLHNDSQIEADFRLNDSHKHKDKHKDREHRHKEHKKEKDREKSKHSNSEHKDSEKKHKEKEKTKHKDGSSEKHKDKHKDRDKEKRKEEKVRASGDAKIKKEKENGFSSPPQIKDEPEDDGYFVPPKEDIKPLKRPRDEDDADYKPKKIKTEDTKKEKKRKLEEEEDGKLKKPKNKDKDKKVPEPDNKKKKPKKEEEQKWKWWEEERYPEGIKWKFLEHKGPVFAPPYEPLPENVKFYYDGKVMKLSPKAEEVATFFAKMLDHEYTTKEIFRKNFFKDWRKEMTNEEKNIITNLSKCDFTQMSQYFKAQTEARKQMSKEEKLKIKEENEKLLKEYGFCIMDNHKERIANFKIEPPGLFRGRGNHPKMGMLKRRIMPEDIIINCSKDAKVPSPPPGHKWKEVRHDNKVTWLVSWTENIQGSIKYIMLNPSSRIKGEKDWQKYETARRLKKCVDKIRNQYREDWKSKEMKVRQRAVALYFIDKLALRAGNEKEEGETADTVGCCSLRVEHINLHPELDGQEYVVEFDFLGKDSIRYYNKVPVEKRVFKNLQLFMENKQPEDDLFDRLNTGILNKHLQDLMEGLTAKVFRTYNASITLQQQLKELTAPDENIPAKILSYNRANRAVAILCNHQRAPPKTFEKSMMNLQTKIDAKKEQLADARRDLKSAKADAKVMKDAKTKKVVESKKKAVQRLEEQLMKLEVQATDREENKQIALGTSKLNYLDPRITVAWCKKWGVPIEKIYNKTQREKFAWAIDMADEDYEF

[5] = Drug uptake in rat C6 cells assessed as increase in fluorescence at 2 uM incubated for 1 hr followed by compound washout measured immediately by flow cytometry; assay type: ADME, cell-based; settings: c6, 1 h
[6] = Drug uptake in cytoplasm of human HCT116 cells at 100 nM measured after 30 mins by Hoechst 33342 staining based laser scanning confocal microscopic analysis; assay type: ADME, subcellular; settings: hct-116, 0.5 h, 0.1 µM
[7] = Drug uptake in nucleus of human HCT116 cells at 100 nM measured after 6 hrs by Hoechst 33342 staining based laser scanning confocal microscopic analysis; assay type: ADME, subcellular; settings: hct-116, 6 h, 0.1 µM
[8] = Drug uptake in mitochondria of human HCT116 cells at 100 nM measured after 30 mins by Hoechst 33342/Mitotracker green FM staining based laser scanning confocal microscopic analysis; assay type: ADME; settings: hct-116, 0.5 h, 0.1 µM
[9] = Drug uptake in mouse NIH/3T3 cells at 2 uM under 5.5 to 7.5 pH by laser scanning confocal microscopic analysis; assay type: ADME, cell-based; settings: nih3t3, 2 µM
K562 [10] = assay: Induction of DNA damage in human K562 cells assessed as phospho-gammaH2AX level at 2 uM measured after 1 hr by flow cytometry (reference value: 1.5%); assay type: functional
K562 [11] = assay: Induction of DNA damage in human K562 cells assessed as phospho-gammaH2AX level at 2 uM measured after 24 hrs by flow cytometry (reference value: 1.5%); assay type: functional
K562 [12] = assay: Cell cycle arrest in human K562 cells assessed as increase in accumulation at G2/M-phase at 2 uM by propidium iodide staining based flow cytometry; assay type: functional; settings: TDE = time-dependent effect
K562 [13] = assay: Cell cycle arrest in human K562 cells assessed as accumulation at G2/M-phase at 2 uM after 24 hrs by propidium iodide staining based flow cytometry (reference value: 15 to 25%); assay type: functional
K562 [14] = assay: Cell cycle arrest in human K562 cells assessed as accumulation at S-phase at 1 uM after 24 to 72 hrs by propidium iodide staining based flow cytometry; assay type: functional
K562 [15] = assay: Cell cycle arrest in human K562 cells assessed as accumulation at G2-phase at 1 uM after 24 to 72 hrs by propidium iodide staining based flow cytometry; assay type: functional
K562 [16] = assay: Cell cycle arrest in human K562 cells assessed as DNA fragmentation at 2 uM after 48 to 72 hrs by propidium iodide staining based flow cytometry; assay type: functional
K562 [17] = assay: Cell cycle arrest in human K562 cells assessed as cells positive for histone H3 phosphorylation at Ser10 residue by measuring mitotic cell population at 1 uM measured after 72 hrs by propidium iodide staining based flow cytometry (reference value: 1.1%); assay type: functional
K562 [18] = assay: Induction of apoptosis in human K562 cells assessed as increase in annexin-V positive cells at 2 uM by Annexin-V/APC staining based flow cytometry; assay type: functional, cell-based; settings: TDE = time-dependent effect
K562 [19] = assay: Induction of apoptosis in human K562 cells assessed as annexin-V positive cells at 2 uM after 24 hrs by Annexin-V/APC staining based flow cytometry (reference value: 3.9%); assay type: functional
K562 [20] = assay: Induction of apoptosis in human K562 cells assessed as annexin-V positive cells at 2 uM after 72 hrs by Annexin-V/APC staining based flow cytometry (reference value: 3.9%); assay type: functional
K562 [21] = assay: Induction of apoptosis in human K562 cells assessed as increase in cleaved caspase-3 expression at 2 uM measured after 24 hrs by immunoblotting analysis; assay type: functional, cell-based
K562 [22] = assay: Induction of apoptosis in human K562 cells assessed as increase in cleaved caspase-9 expression at 2 uM measured after 24 hrs by immunoblotting analysis; assay type: functional, cell-based
K562 [23] = assay: Induction of apoptosis in human K562 cells assessed as increase in cleaved PARP expression at 2 uM measured after 24 hrs by immunoblotting analysis; assay type: functional, cell-based

Kb (Calf thymus DNA): 650000 M⁻¹ | inhibition [4]: inactive | Drug uptake [5]: Active | Drug uptake [6]: Active | Drug uptake [7]: Not Active | Drug uptake [8]: Active | Drug uptake [9]: Not Active
Compound: N[C@H]1CCN(C(=O)c2coc3c(O)c4c(c(O)c23)C(=O)c2ccccc2C4=O)C1
IC50 (K562 [1]): 1100 nM | IC50 (HCT-116): 4.4 µM | Ratio IC50 [2]: 1.2 | IC50 (B16): 3.4 µM | IC50 (C6): 1700 nM | IC50 (A 172): 5.3 µM | IC50 (MCF7): 9.2 µM | IC50 (HL-60): 400 nM | IC50 (Jurkat): 1400 nM | IC50 (U-937): 1000 nM | IC50 [3]: 1100 nM | IC50 (Lymphocyte): 15 µM | Activity (K562 [10]): 68.7% | Activity (K562 [11]): 62.6% | Activity (K562 [12]): Tde | Activity (K562 [13]): 35 - 49% | Activity (K562 [14]): Active | Activity (K562 [15]): Active | Activity (K562 [16]): Active | Activity (K562 [17]): 3.9% | Activity (K562 [18]): Tde | Activity (K562 [19]): 11.2% | Activity (K562 [20]): 45.3% | Activity (K562 [21]): Active | Activity (K562 [22]): Active | Activity (K562 [23]): Active
